Experimental data taken from US20170112108A1, “GENETICALLY MODIFIED NON-HUMAN MAMMALS HAVING MODIFIED LIVER CELLS AND/OR TISSUE AND METHODS OF MAKING SAME” (priority 2015, published 2017).
Where two headings read alike, the source gives them in different places.

What was measured:
[1] = system: rats; conditions: bosentan-treated rats; cited from earlier work
[2] = system: human liver; conditions: in vivo, cited from earlier work
[3] = system: mice, rats, dogs and primates; conditions: cited from earlier work
[4] = system: clinical trial participants; conditions: of 15 clinical trial participants; cited from earlier work
[5] = system: rat liver; test: Serum ALT after GCV in neonatal rats given rAAV-PB-HSVtk and rAAV-PBo; assay type: in vivo; conditions: 50 mg/kg GCV, 2 injections 2 days apart, 2 weeks after rAAV-PB-HSVtk and rAAV-PBo (5e10 vector genomes each); serum one week later
Method: 20% targeted delivery is insufficient to induce desirable liver damage with ganciclovir (GCV). Three day old neonatal rats were injected with 5e10 vector genomes each of rAAV-PB-HSVtk and rAAV-PBo per animal. Due to the stable integration and expression of suicide gene HSVtk mediated by piggyBac transposon multiple injections of ganciclovir (GCV) can be administered over a prolonged period of time. 2 weeks later, each animal was injected with 50 mg/kg GCV (2 injections, 2 days apart). One week later blood serum was collected and analyzed for elevated ALT levels, which is indicative of liver damage. […] ALT levels in the 200-300 range in desirable prior to transplantation of human hepatocytes.

Row | Compound | hepatotoxicity in rats [1] | human-specific hepatotoxicity [2] | human-specific hepatotoxicity ([2]; listed as Bosetan) | outcome of preclinical toxicology studies [3] | participants who developed acute liver failure [4] | participants who died [4] | participants who required a liver transplant [4] | serum ALT levels (liver damage) [5]
1 | COc1ccccc1Oc1c(NS(=O)(=O)c2ccc(C(C)(C)C)cc2)nc(-c2ncccn2)nc1OCCO [Bosentan] | do not develop hepatotoxicity | causes hepatotoxicity in a human-specific manner | known to cause human-specific hepatotoxicity |  |  |  |  | 
2 | O=c1[nH]c(=O)n([C@@H]2O[C@H](CO)[C@@H](O)[C@@H]2F)cc1I [FIAU] |  | known to cause human-specific hepatotoxicity |  | cleared all preclinical toxicology studies | seven | five | two | 
3 | Nc1nc(O)c2ncn(COC(CO)CO)c2n1 [GCV, ganciclovir] |  |  |  |  |  |  |  | normal ALT levels
